Laboratory results published in US20190231783A1, “PHARMACEUTICAL FORMULATIONS” (Corvus Pharmaceuticals, Inc., priority 2018, published 2019).
Values joined by “and” are separate entries in the source; they are usually repeats but may differ in a detail not shown here. Equal values may be shown once.

Key:
[1] = Particle size distribution by laser diffraction (nanomilled suspensions, cast films, layered beads); format: physicochemical; conditions: crystalline drug particles used to prepare Nanosuspension #001-35 (Table 13A)
Method: “Particle size distribution” or “PSD” or “size distribution” refers to the size of particles present in their relative proportions in a sample, as measured by laser diffraction spectroscopy. In aspects, the particle size distribution refers to the particle size distribution of all the drug particles in the composition. The particle size distribution of a sample is measured by laser diffraction spectroscopy. Laser diffraction spectrometers are commercially available as, e.g., MASTERSIZER® 3000 from Malvern Instruments Ltd, and HORIBA® LA-950 by Horiba Instruments, Inc., Irvine Calif. For laser diffraction spectroscopy, particle size distribution is generally described by D values, such as D90. In aspects, the laser diffraction spectroscopy can be analyzed by the Fraunhofer theory. In aspects, the laser diffraction spectroscopy can be analyzed by the Mie scattering theory. In aspects, the laser diffraction spectroscopy can be analyzed by a combination of the Fraunhofer theory and the Mie scattering theory.
Particle size measurements were obtained using water as dispersing media in the fraction cell of the laser diffraction particle size analyzer and analyzed using a refractive index of 1.60+0.01i in water.
Samples at different time points were withdrawn and checked for particle size distribution by laser diffraction and appearance by optical microscopy.

[2] = Assay and impurities of MBP dispersions, initial and on storage at 40° C./75% RH; format: physicochemical; conditions: initial (MBP) or API
Method: Chemical Characterization of samples.
Stability Studies. All initial samples of the MBP were kept in closed 75 mL HDPE bottles and monitored at 40° C. and 75% relative humidity (RH) for up to 3 months. The physical state and chemical stability were reported by XRPD, and assay and impurity. […] The assay and impurity results from the MBP dispersions, stored at 40° C. and 75% relative humidity closed conditions for up to 3 months, and at 40° C. and 75% relative humidity open conditions for up to 2 weeks are reported in the Tables 9D and 9E below.

[3] = Chemical characterization (assay, impurities) of drug-layered beads and capsules, initial and at CRT/ACC storage; format: physicochemical
From the text: The amount of the smaller size drug nanoparticles increased as the level of coating increased, with the smaller hump representing the particle size distribution of the drug nanoparticle suspension and the larger hum representing the particle size distribution of the sugar spheres, which largely remained unchanged throughout the process. […] The particle size distribution of the drug nanoparticles on sugar spheres was similar to that of the particle size distribution of drug nanoparticles in the film.
The assay was low, most likely due to the size of the batch (200 grams) since the minimum amount of drug suspension had to be used, which is smaller than the optimum size for the Vector FL1 fluid bed.
The capsules were stored and monitored at controlled room temperature (CRT, 25° C./60% RH) and accelerated conditions (ACC, 40° C./75% RH), and evaluated for chemical characterization up to 3 months, as shown in Table 15C and Table 15D, respectively.

[4] = Dissolution of un-milled vs nano-milled Formula (III) suspensions (sink and non-sink); format: physicochemical
Method: Dissolution at non-sink conditions was tested to further compare un-milled and milled Formula (III) formulations.

[5] = Assay (% LC) and impurities by HPLC of HME extrudates and tablets, initial and on storage
From the text: “Total impurities” refers to in the common pharmaceutical nomenclature as the total sum of all measured impurities and degradation products from the drug substance and is also referred to as total related substances. […] A gradient method was used with 0.1% (V/V) methanesulfonic acid in water as the first mobile phase and acetonitrile as the second. A C18 column with UV detection at 225 nm was used. Acetonitrile-water mixture was used for dilution of the samples.
Chemical stability. […] The impurity profile of the formulations was compared to the crystalline Formula (III) used in the HME extrudate (Table 2C).
Thermal degradation was closely monitored due to the high processing temperature. […] Selected major impurities in the extrudate that could be attributed to the processing condition were summarized based on the relative retention time (RRT) and shown in Table 2E.
Chemical Characterization of stability samples.

[6] = Assay and related substances by HPLC of nanosuspensions, after milling and on storage; format: physicochemical
Method: Assay and Related Substance Testing. Formulations B, D, and E were tested for assay and related substances (RS) to detect the compatibility with the excipients. […] Assay/RS was not determined at TO for this study.

[7] = Solubility / kinetic solubility in pH 6.8 phosphate buffer; format: physicochemical; conditions: 37 °C, thermodynamic from solid
Method: Kinetic solubility is a supersaturated or metastable and time-dependent state as opposed to true time-independent equilibrium solubility. […] The bottle was rotated at 50 rpm up to 4 hours at 37° C. Samples were collected at 5, 10, 15, 20, 25, 30, 45, 60, 75, 90, 120, 180, and 240 minutes time points. The samples were filtered using […] PVDF filter and diluted with acetonitrile in 1:1 ratio immediately. The samples were analyzed by HPLC. The concentration of phosphate buffer had only a minor effect on the solubility of the DS or the amorphous solid dispersion (extrudate), and the surfactant made it more difficult to distinguish the enhancement of the solubility.
Solubility Studies. […] Amorphous solid dispersions with 30% drug loading of Formula III with three different stabilizing polymers were evaluated. In particular, excess sample (either Formula (III) milled extrudate or Formula (III) as a control) was added into the bottle containing 120 mL of each media to ensure saturation.
At the same time, SLS diminished the discrimination between the crystalline and amorphous forms. Thus it is advisable to avoid SLS in the dissolution media for kinetic solubility studies.

[8] = initial (formulation) or API as used, listed as API

Cc1ccc(-c2nc(N)nc3c2nnn3Cc2cccc(COC3CCOC3)n2)o1 (stereo not shown) [Formula (III)]
Particle Size Distribution D10 [1]: 73 nm | Particle Size Distribution D50 [1]: 169 nm | Particle Size Distribution D90 [1]: 714 nm | Total Impurity % [2]: 0.82% | Total Specified Impurity % [2]: 0.46% | Total Impurities ([3]; API): 0.8% | Total Impurities % ([3]; initial chemical characterization of the beads (Table 14C)): 0.80% | Solubility dependence on pH [4]: increases significantly below pH 3 | Time to complete dissolution ([4]; acid medium, sink condition): 45 min | Solubility of a 100 mg dose in 900 mL phosphate buffer at pH 6.8 ([4]; non-sink condition): not fully soluble | Total Impurities ([5]; initial (Table 8E)): 0.8% | Total Impurities % [5, 8]: 0.82% and 0.818% and 0.80% | Total Specified Impurities % [5, 8]: 0.46% and 0.462% | Potency (Assay %) ([6]; T = 0 (formulation) or API): 100% | % Impurity by RRT 0.80 ([6]; T = 0 or API): 0.2% | % Impurity by RRT 0.94 ([6]; T = 0 or API): 0.2% | % Impurity by RRT 10.6 ([6]; T = 0 or API): 0.2% | Total Impurity % ([6]; T = 0 or API): 0.6% | Related substances (RS) of the standard ([6]; standard, unmilled): 0.6% | solubility at 240 min ([7]; phosphate buffer with sodium lauryl sulphate, pH 6.8, aqueous with cosolvent or surfactant or cyclodextrin, 10 mM Phosphate buffer, pH 6.8, 0.5% SLS): 419 µg/mL | solubility at 240 min ([7]; phosphate buffer with sodium lauryl sulphate, pH 6.8, aqueous with cosolvent or surfactant or cyclodextrin, 10 mM Phosphate buffer, pH 6.8, 1.0% SLS): 593 µg/mL | solubility at 240 min ([7]; phosphate buffer with sodium lauryl sulphate, pH 6.8, aqueous with cosolvent or surfactant or cyclodextrin, 50 mM Phosphate buffer, pH 6.8, 0.5% SLS): 386 µg/mL | solubility at 240 min ([7]; phosphate buffer with sodium lauryl sulphate, pH 6.8, aqueous with cosolvent or surfactant or cyclodextrin, 50 mM Phosphate buffer, pH 6.8, 1.0% SLS): 627 µg/mL | solubility at 240 min ([7]; phosphate buffer, pH 6.8, aqueous buffer, 10 mM Phosphate buffer, pH 6.8, No Surfactant): 23 µg/mL | solubility at 240 min ([7]; phosphate buffer, pH 6.8, aqueous buffer, 50 mM Phosphate buffer, pH 6.8, No Surfactant): 19 µg/mL
